“Also recorded” adds a separate entry of the source.
Legend:
Type in all cases: cell-based
HL-60 cells [1] = experiment: Mobilization of intracellular Ca2+ after pertussis toxin pretreatment; settings: pretreatment 20 hrs with 100 ng/ml pertussis toxin
Method: Increases in [Ca^2+ ]i arising from the mobilization of intracellular Ca^2+ were inhibited by pretreatment for 20 hrs with 100 ng/ml pertussis toxin (PTx).

[2] = system: HL-60 cells differentiated with dibutryl cAMP; experiment: Mobilization of intracellular Ca2+ in fura-2 loaded differentiated HL-60 cells; settings: differentiated HL-60 cells loaded with fura-2
Method: The three peptides of the present invention isolated from the venom of the spider Geolycosa riogrande, designated Geolycosa 17, 15a and 15b, contain linear sequences of 25 (Geolycosa 17) or 27 (Geolycosa 15a and 15b) amino acids, lack cysteine, and are enriched in lysine. […] When tested at concentrations of 0.5 to 2 μM, all three peptides caused rapid and transient increases in [Ca^2+ ]i that persisted in the absence of extracellular Ca^2+ but were blocked when cellular stores of Ca^2+ were depleted by pretreatment with ionomycin.

HL-60 cells [3] = system: HL-60 cells
Method: Uke the effect of many other pore formers, the effects of these peptides on EB uptake were augmented when the total extracellular divalent cation concentration was reduced to 0.1 mM and inhibited when extracellular Mg^2+ was increased from 1 to 5 mM.
The ability of Geolycosa 17 to form pores in membranes was tested in T3 fibroblasts, parathyroid cells, and differentiated and undifferentiated HL60 cells. Pore formation was assessed by measuring the permeability of the cells to ethidium bromide (EB, MW 394). Concentrations of Geolycosa 17 greater than 7.5 μM increased EB uptake in all cells tested.

Molecule	effect of PTx pretreatment on mobilization of intracellular Ca2+ (HL-60 cells [1])	mobilization of intracellular Ca2+ [2]	EB uptake / pore formation at concentrations effective in mobilizing intracellular Ca2+ (HL-60 cells [3])	permeabilization of cells indexed by uptake of ethidium bromide (EB) (HL-60 cells [3])	rank order of potency for causing permeabilization of HL-60 cells (HL-60 cells [3])	EC50 (HL-60 cells [3]; EB uptake, read-out: EC50 for causing pore formation)	potency relative to mastoparan (HL-60 cells [3])	effect of PTx on pore formation (HL-60 cells [3]; pertussis toxin pretreatment)	EB uptake at slightly higher concentrations than those mobilizing Ca2+ (HL-60 cells [3])	potency relative to Geolycosa 15a and Geolycosa 17 (HL-60 cells [3])
Nc1ncnc2c1ncn2[C@@H]1O[C@H](COP(=O)(O)OP(=O)(O)OP(=O)(O)O)[C@@H](O)[C@H]1O [ATP, reference compound]	blocked	–	–	–	–	–	–	–	–	–
CC[C@H](C)[C@H](NC(=O)CN)C(=O)NCC(=O)N[C@@H](C)C(=O)N[C@H](C(=O)N[C@@H](CC(C)C)C(=O)N[C@@H](CCCCN)C(=O)N[C@H](C(=O)N[C@@H](CC(C)C)C(=O)N[C@H](C(=O)N[C@H](C(=O)NCC(=O)N[C@@H](CC(C)C)C(=O)N1CCC[C@H]1C(=O)N[C@@H](C)C(=O)N[C@@H](CC(C)C)C(=O)N[C@H](C(=O)N[C@@H](CO)C(=O)N[C@@H](Cc1c[nH]c2ccccc12)C(=O)N[C@H](C(=O)N[C@@H](CCCCN)C(=O)N[C@@H](CCCNC(=N)N)C(=O)N[C@@H](CCCCN)C(=O)N[C@@H](CCCNC(=N)N)C(=O)N[C@@H](CCC(N)=O)C(=O)N[C@@H](CCC(N)=O)C(N)=O)[C@@H](C)CC)[C@@H](C)CC)[C@@H](C)O)[C@@H](C)O)C(C)C)C(C)C [melittin, reference compound]	–	caused the mobilization of intracellular Ca^2+	caused significant pore formation	permeabilized HL-60 cells	melittin>Geolycosa 15b>Geolycosa 17=Geolycosa 15a>mastoparan	~250 nM	–	–	–	–
Geolycosa 15a (KIKWLKAMKSIAKFIAKKQMKKHLGGE)	blocks	mobilize intracellular Ca^2+	even less prone to cause increases in EB uptake	permeabilized cells	melittin>Geolycosa 15b>Geolycosa 17=Geolycosa 15a>mastoparan	–	about twice as potent	without effect	–	–
Geolycosa 15b (KIKWFKTMKSIAKFIAKEQMKKHLKGE)	failed to affect	mobilize intracellular Ca^2+; also recorded: caused the mobilization of intracellular Ca^2+	little uptake of EB	permeabilized cells	melittin>Geolycosa 15b>Geolycosa 17=Geolycosa 15a>mastoparan	–	–	–	a large uptake of EB	about twice as potent

Reference: patent US5756462A, “Pore forming peptides from Geolycosa riogrande” (priority 1996, dated 1998)
